≈ marks a conversion by molar mass, not a printed value. Like-named read-outs stand apart in the source and are kept apart here.
Assays:
[1] = system: normal human mononuclear cells; test: IC50 at intervals of drug contact, normal mononuclear cells, Example 5; format: cell-based
Protocol: (§1) Measurements are made at the indicated intervals of the drug contact with the cells from 15 minutes to 12 hours.

[2] = system: human T-lymphoma (Jurkat) cells; test: IC50 at intervals of drug contact, Jurkat cells, Example 5; format: cell-based
Protocol: as §1

MCF-7AU = test: Cytotoxicity against daunorubicin/verapamil-resistant MCF-7AU not expressing P-170; format: cell-based, human
From the text: (§2) The daunorubicin composition of Example 3 {Prep. […] B}.

leukocytes = test: Leukocyte count (WBS) in mice
Protocol: Therefore, the leukocyte count during in vivo administration of MTD daunorubicin allows the assessment of the ratio between specific (DNA-intercollation) activity of the drug and non-specific toxicity.
Groups (6 animals/group) of C57B1/6 7-week-old female mice are inoculated i.p. with free of micellar (N=1.3) daunorubicin obtained as described in Example 3 {Prep. B and Prep. A, respectively}. Drug concentrations (MTD) are adjusted so that a maximum volume of 0.5 mL is injected in each mouse. Blood samples are collected and viable leukocytes are counted as described in Michisch et al., Proc. Natl. Acad. Sci. USA 88, 547-551 (1991). The number of WBC after administration of 0.1 mL PBS, 15-16 mln cells/mL, is used as the control. The experiment is repeated twice.
The effects of free and micellar daunorubicin obtained as described in Example 3 {Prep. B and Prep. A, respectively} on leukocyte count are determined three days after administration as described in Example 15.

SKVO3 cells = test: Cytotoxic activity of plasma of inoculated mice on SKVO3 cells; format: cell-based, human
Protocol: Anti-neoplastic activity is determined by evaluation of the cytotoxic activity of plasma of mammals inoculated with the test composition (see de Valeriola et el., Cancer Chemother. Pharmacol. 29, 133-140, 1991).
Groups (6 animals/group) of C57B1/6 7-week-old female mice are inoculated i.v. (via the tail vein) with free or micellar (N=1.3) daunorubicin obtained as described in Example 3 {Prep. B and Prep. A, respectively}. Drug concentrations (MTD) are adjusted so that a maximum volume of 0.1 mL is injected in each mouse. The experiment is repeated twice.
To obtain plasma samples, blood (10 μl) is collected from the tail artery one hour after drug administration, diluted 1:10 with sterile RPMI 1640 medium, and centrifuged at 400 g for 15 minutes. […] The cells are incubated for two hours at 37° C. and 5% CO2, and then washed three times with RPMI 1640. The pretreated cells are incubated in RPMI 1640 supplemented with 10% fetal calf serum at 37° C. and 5% CO2 for three days, after which cytotoxicity is determined as described in Example 1.
The procedure of Example 16 is repeated utilizing SKVLB and SRVO3 cells.

Dox-MCF-7 = test: Cytotoxicity against daunorubicin-resistant, verapamil-sensitive Dox-MCF-7 expressing P-170; format: cell-based, human
From the text: as §2

CRL157 cells = test: Cytotoxicity to CRL157 cells after incubation of preparations in the dark at 37° C.; format: cell-based; conditions: Homo sapiens
Protocol: (§3) B. Human ovarian carcinoma cells (CRL157) are precultured in 1% solution of the same block copolymer but without daunorubicin in RPMI 1640 medium supplemented with 10% calf fetal serum. The preparation of part A is added and the mixture is incubated for 60 minutes at 37° C. and the cells then washed three times with RPMI 1640 and cultured in RPMI 1640 supplemented with 10% calf fetal serum for 3 days {Prep. A}. Cytotoxicity is measured, both for this preparation and a parallel preparation of free daunorubicin {Prep. B}, using the method of Alley et al., Cancer Res., 48, 589-601 (1988). The results are as follows:
Micellar daunorubicin obtained as described in Example 3 {Prep. A} and free daunorubicin {Prep. B} are incubated in the dark at 37° C. and cytotoxicity to CRL157 cells in then determined in the manner discussed in Part B of Example 1.

[3] = system: human small cell carcinoma of lung (H-69); test: Cytotoxicity to human small cell carcinoma of lung (H-69), Example 1; format: cell-based
Protocol: A. A block copolymer of poly(oxyethylene)-poly(oxypropylene) in which N=0.25 (Pluronic F-68) is diluted with RPMI 1640 medium to a final concentration of 2.0% at 4° C. The mixture is incubated for 30 minutes at 37° C. and then sterilely filtered through a 0.22 μm filter. An equal volume of a solution of 200 μg daunorubicin in RPMI 1640 medium is added and this mixture is incubated for 30 minutes at 37° C.
as §3
Following the same procedure, cytotoxicity is determined against human small cell carcinoma of lung (H-69): […]

For `COc1cccc2c1C(=O)c1c(O)c3c(c(O)c1C2=O)C[C@@](O)(C(C)=O)C[C@@H]3O[C@H]1C[C@H](N)[C@H](O)[C@H](C)O1` [Prep. B, daunorubicin], the IC50 ([1]; 0.25 h) was 4.9 µg/mL (≈ 9.29 µM), the IC50 ([1]; 0.5 h) was 0.98 µg/mL (≈ 1.86 µM) and the IC50 ([1]; 0.75 h) was 0.405 µg/mL (≈ 0.768 µM). The IC50 ([1]; 1 h) was 0.31 µg/mL (≈ 0.588 µM), the IC50 ([1]; 2 h) was 0.29 µg/mL (≈ 0.55 µM) and the IC50 ([1]; 4 h) was 0.275 µg/mL (≈ 0.521 µM). It also gave an IC50 ([1]; 8 h) of 0.28 µg/mL (≈ 0.531 µM), an IC50 ([1]; 12 h) of 0.24 µg/mL (≈ 0.455 µM) and an IC50 ([2]; 0.25 h) of 0.12 µg/mL (≈ 0.227 µM). For the same molecule, the IC50 ([2]; 0.5 h, drug contact 0.50 hours, read-out: IC50) was 0.068 µg/mL (≈ 0.129 µM), the IC50 ([2]; 0.75 h) was 0.035 µg/mL (≈ 0.0663 µM) and the IC50 ([2]; 1 h) was 0.025 µg/mL (≈ 0.0474 µM). The IC50 ([2]; 2 h) was 0.019 µg/mL (≈ 0.036 µM), the IC50 ([2]; 4 h) was 0.016 µg/mL (≈ 0.0303 µM) and the IC50 ([2]; 8 h) was 0.003 µg/mL (≈ 0.00569 µM). The IC50 ([2]; 12 h) was 0.0052 µg/mL (≈ 0.00986 µM), the inhibition at 0.016 µg/mL (MCF-7AU; Homo sapiens) was 3% and the inhibition at 0.08 µg/mL (MCF-7AU; Homo sapiens) was 9%. For the same molecule, the inhibition at 0.4 µg/mL (MCF-7AU; Homo sapiens) was 37%, the inhibition at 2 µg/mL (MCF-7AU; Homo sapiens) was 65% and the inhibition at 10 µg/mL (MCF-7AU; Homo sapiens) was 89%. For the same molecule, the inhibition at 50 µg/mL (MCF-7AU; Homo sapiens) was 100%, the “IC50 (in words)” value (MCF-7AU; resistant line MCF-7AU, statement for both resistant lines) was “higher IC50 's (is less toxic)” and the “WBS, % of control” value (leukocytes; day 0, MTD i.p.) was 100 % of control. For the same molecule, the “WBS, % of control” value (leukocytes; day 3, MTD i.p.) was 40 % of control, the “WBS, % of control” value (leukocytes; day 7, MTD i.p.) was 60 % of control and the “WBS, % of control” value (leukocytes; day 10, MTD i.p.) was 93.8 % of control. For the same molecule, the “WBS, % of control” value (leukocytes; day 14, MTD i.p.) was 100 % of control, the “WBS, % of control” value (leukocytes; dose 25% of MTD, three days after administration) was 78 % of control and the “WBS, % of control” value (leukocytes; dose 50% of MTD, three days after administration) was 61 % of control. The “WBS, % of control” value (leukocytes; dose 75% of MTD, three days after administration) was 36 % of control, the “WBS, % of control” value (leukocytes; dose 100% of MTD, three days after administration) was 39 % of control and the “Inhibition, %” value (SKVO3 cells; plasma dilution 1:20, 10 mg/kg daunorubicin) was 22%. The “Inhibition, %” value (SKVO3 cells; plasma dilution 1:20, MTD of daunorubicin) was 9%, the “Inhibition, %” value (SKVO3 cells; plasma dilution 1:200, 10 mg/kg daunorubicin) was 6% and the “Inhibition, %” value (SKVO3 cells; plasma dilution 1:200, MTD of daunorubicin) was 0%. The “Inhibition, %” value (SKVO3 cells; plasma dilution 1:2000, 10 mg/kg daunorubicin) was 0%, the “Inhibition, %” value (SKVO3 cells; plasma dilution 1:2000, MTD of daunorubicin) was 0% and the inhibition at 0.016 µg/mL (Dox-MCF-7; Homo sapiens) was 2%. It also gave an inhibition at 0.08 µg/mL (Dox-MCF-7; Homo sapiens) of 7%, an inhibition at 0.4 µg/mL (Dox-MCF-7; Homo sapiens) of 39% and an inhibition at 2 µg/mL (Dox-MCF-7; Homo sapiens) of 62%. The inhibition at 10 µg/mL (Dox-MCF-7; Homo sapiens) was 86%, the inhibition at 50 µg/mL (Dox-MCF-7; Homo sapiens) was 100% and the “IC50 (in words)” value (Dox-MCF-7; resistant line Dox-MCF-7, statement for both resistant lines) was “higher IC50 's (is less toxic)”. For the same molecule, the IC50 (CRL157 cells; 2 h) was 0.4 µg/mL (≈ 0.758 µM), the IC50 (CRL157 cells; 4 h) was 0.475 µg/mL (≈ 0.9 µM) and the IC50 (CRL157 cells; 12 h) was 1.12 µg/mL (≈ 2.12 µM). For the same molecule, the IC50 (CRL157 cells; 24 h) was 6.3 µg/mL (≈ 11.9 µM), the IC50 (CRL157 cells; 48 h) was 10.2 µg/mL (≈ 19.3 µM) and the IC50 (CRL157 cells; 96 h) was 48.9 µg/mL (≈ 92.7 µM). It also gave an inhibition at 0.0032 µg/mL [3] of 20%, an inhibition at 0.016 µg/mL [3] of 42% and an inhibition at 0.08 µg/mL [3] of 69%. For the same molecule, the inhibition at 0.4 µg/mL [3] was 91%, the inhibition at 2 µg/mL [3] was 100% and the inhibition at 10 µg/mL [3] was 100%. It also gave an inhibition at 50 µg/mL [3] of 100%.
